According to patent US10882869B2, “Condensed heterocyclic compounds and pesticides” (NISSAN CHEMICAL CORPORATION, priority 2015, dated 2021):

How the values were obtained:
[1] = tested on: Plutella xylostella; assay: Insecticidal test on Plutella xylostella (cabbage leaves soaked); format: in vivo; details: 144 h, 500 ppm solution, 3rd-instar larvae, 6 days after, 25° C.
Experimental: (§1) Leaves of cabbage were soaked in the solutions for about 10 seconds. After the soaking, the leaves were dried in air and placed in dishes. In each dish, five 3rd-instar larvae of Plutella xylostella were released, and the dishes were covered with lids and placed in an incubator at 25° C. 6 Days after, dead insects in the dishes were counted, and the mortality was calculated by using the same equation as in Test Example 1. The test was carried out in duplicate.

[2] = tested on: Frankliniella occidentalis; assay: Insecticidal activity on Frankliniella occidentalis (kidney bean leaf spray); format: in vivo; details: 48 h, 500 ppm solution sprayed (2.5 mg/cm^2), larvae on kidney bean leaves, 2 days after
Experimental: In styrol cups having an inner diameter of 7 cm, wet filter paper was laid, kidney bean leaves cut into a 3 cm square were laid on the paper, and each leaf was inoculated with 20 larvae of Frankliniella occidentalis. […] 2.5 ml of the solutions were sprayed from a rotary spray tower into the styrol cups (2.5 mg/cm^2).
2 Days after, dead insects were counted, and insect damage on kidney bean leaves was examined. The mortality was calculated by using the same equation as in Test Example 1.
The insect damage degree was evaluated as follows. 1: 0 to 20% insect damage, 2: 20 to 50% insect damage, 3: 50 to 70% insect damage, and 4: 70% or higher insect damge. The test was carried out in duplicate.

[3] = tested on: Myzus persicae; assay: Insecticidal test on Myzus persicae (cabbage leaf spray); format: in vivo; details: 144 h, 500 ppm solution sprayed (2.5 mg/cm^2), apterous adults on cabbage leaves, 6 days after, 25° C.
Experimental: Wet absorbent cotton was laid on glass dishes having an inner diameter of 3 cm, and covered with leaves of cabbage cut into circles of the same diameter, and 4 apterous adults of Myzus persicae were released. […] The solutions were sprayed from a rotary spray tower (2.5 mg/cm^2), and the dishes were covered with lids and placed in an incubator at 25° C. 6 Days after, dead insects were counted, and the mortality was calculated by using the same equation as in Test Example 1. The test was carried out in duplicate.

[4] = tested on: Nilaparvata lugens; assay: Systemic insecticidal test on Nilaparvata lugens (rice seedling root dip); format: in vivo; details: 20 ppm solution, rice seedling roots dipped 7 days, 3rd-instar larvae, 6 days after release, 25° C.
Experimental: 7 Days after, the rice seedlings were picked and put in test tubes, and in each tube, five 3rd-instar larvae of Nilaparvata lugens were released, and the tubes were capped with sponge and placed in an incubator at 25° C. 6 Days after the release of the insects, dead insects were counted, and the mortality (%) (the number of dead insects÷the number of released insects×100) was calculated. The test was carried out in duplicate.

[5] = tested on: Plutella xylostella; assay: Soil irrigation test on Plutella xylostella; format: in vivo; details: 144 h, 500 ppm solution, 10 ml soil irrigation of cabbage seedlings, leaves picked 5 days after, 3rd-instar larvae, 6 days after
Experimental: The soil around the bases of cabbage seedlings (at the 2.5-leaf stage) planted in plastic cups was irrigated with 10 ml of the solutions. After the irrigation, the cabbage seedlings were placed in a greenhouse. 5 Days after the irrigation, leaves of cabbage were picked and placed in dishes. In each dish, five 3rd-instar larvae of Plutella xylostella were released, and the dishes were covered with lids and placed in an incubator at 25° C. 6 Days after, dead insects in the dishes were counted, and the mortality was calculated by using the same equation as in Test Example 1. The test was carried out in duplicate.

[6] = tested on: Nilaparvata lugens; assay: Insecticidal test on Nilaparvata lugens (rice sheaths soaked); format: in vivo; details: 144 h, 500 ppm solution, 3rd-instar larvae, 6 days after, 25° C.
Experimental: Rice sheaths were soaked in the solutions for about 10 seconds. After the soaking, the rice sheaths were dried in air and put in test tubes. In each tube, five 3rd-instar larvae of Nilaparvata lugens were released, and the tubes were capped with sponge and placed in an incubator at 25° C. 6 Days after, dead insects in the test tubes were counted, and the mortality (%) (the number of dead insects÷the number of released insects×100) was calculated. The test was carried out in duplicate.

[7] = tested on: Spodoptera litura; assay: Insecticidal test on Spodoptera litura (cabbage leaves soaked); format: in vivo; details: 144 h, 500 ppm solution, 3rd-instar larvae, 6 days after, 25° C.
Experimental: as §1, with “Spodoptera litura” for “Plutella xylostella”

[8] = tested on: Rhipicephalus sanguineus; assay: Test on the effect on Rhipicephalus sanguineus (thin film in glass container); format: in vivo; details: 96 h, application dose 10 μg/cm^2, protonymphs, 4 days after release, 25° C.
Experimental: (§2) 350 μl of the solutions were applied to the bottoms and the side walls of glass containers with an inner wall surface area of 35 cm^2, and acetone was volatilized to prepare thin films of the compounds on the inner walls of the glass containers. Since the inner wall surface area of each glass container was 35 cm^2, the application dose was 10 μg/cm^2.
(§3) To each glass container, five protonymphs (male and female) of Rhipiceohalus sanguineus were released, and the containers were covered with lids and placed in an incubator at 25° C. 4 Days after the release of the ticks, dead ticks were counted, and the mortality was calculated by using the same equation as in Test Example 1.

[9] = tested on: Ctenocephalides felis; assay: Test on the effect on Ctenocephalides felis (thin film in glass container); format: in vivo; details: 96 h, application dose 10 μg/cm^2, adults, 4 days after release, 25° C.
Experimental: as §2
as §3, with “adults” for “protonymphs”, “Ctenocephalides felis” for “Rhipiceohalus sanguineus”, “fleas,” for “ticks,”, “fleas” for “ticks”

melting point	Compound	mortality at 500 ppm [1]	mortality at 500 ppm [2]	mortality at 500 ppm [3]	mortality at 20 ppm [4]	pest or weed control at 500 ppm [5]	mortality at 500 ppm [6]	mortality at 500 ppm [7]	mortality at 10 µg/cm2 [8]	mortality at 10 µg/cm2 [9]
	CCS(=O)(=O)c1c(-c2nc3cc(C(F)(F)F)cnc3n2C)nc2sc(C(F)(F)F)nn12 [2-1-002a, 5-(ethylsulfonyl)-6-[3-methyl-6-(trifluoromethyl)-3H-imidazo[4,5-b]pyridin-2-yl]-2-(trifluoromethyl)imidazo[2,1-b][1,3,4]thiadiazole]	≥ 90%	≥ 50%	≥ 90%	≥ 90%	≥ 90%				
230 to 233 °C	CCSc1c(-c2nc3cc(I)cnc3n2C)nc2cc(C(F)(F)F)ccn12 [1-1-026b, 2-[3-(ethylthio)-7-(trifluoromethyl)imidazo[1,2-a]pyridin-2-yl]-6-iodo-3-methyl-3H-imidazo[4,5-b]pyridine]									
	CC[S+]([O-])c1c(-c2nc3cc(C(F)(F)F)cnc3n2C)nc2cc(C(F)(F)F)cnn12 (centres unmarked) [1-1-057c, 2-[3-(ethylsulfinyl)-7-(trifluoromethyl)imidazo[1,2-b]pyridazin-2-yl]-3-methyl-6-(trifluoromethyl)-3H-imidazo[4,5-b]pyridine]	≥ 90%	≥ 50%	≥ 90%	≥ 90%		≥ 90%	≥ 90%	≥ 50%	≥ 50%
	CCS(=O)(=O)c1c(-c2nc3cc(C(F)(F)F)ncc3n2C)nc2cc(C(F)(F)F)ccn12 [1-8-005a, 2-[3-(ethylsulfonyl)-7-(trifluoromethyl)imidazo[1,2-a]pyridin-2-yl]-3-methyl-6-(trifluoromethyl)-3H-imidazo[4,5-c]pyridine]	≥ 90%		≥ 90%	≥ 90%	≥ 90%	≥ 90%	≥ 90%	≥ 50%	≥ 50%
	CCSc1c(-c2nc3cc(SC(F)(F)F)cnc3n2C)nc2cc(C(F)(F)F)ccn12 [1-1-027b, 2-[3-(ethylthio)-7-(trifluoromethyl)imidazo[1,2-a]pyridin-2-yl]-3-methyl-6-((trifluoromethyl)thio)-3H-imidazo[4,5-b]pyridine]	≥ 90%						≥ 90%	≥ 50%	≥ 50%
	CCS(=O)(=O)c1c(-c2nc3cc(C(F)(F)F)cnc3n2C)nc2cc(C(F)(F)F)ccn12 [1-1-002a, 2-[3-(ethylsulfonyl)-7-(trifluoromethyl)imidazo[1,2-a]pyridin-2-yl]-3-methyl-6-(trifluoromethyl)-3H-imidazo[4,5-b]pyridine]	≥ 90%		≥ 90%	≥ 90%	≥ 90%	≥ 90%	≥ 90%	≥ 50%	≥ 50%
	CCS(=O)(=O)c1c(-c2nc3cc(C(F)(F)F)cnc3n2C)n(C)c2ccc(C(F)(F)F)cc12 [3-1-001a, 2-[3-(ethylsulfonyl)-1-methyl-5-(trifluoromethyl)-1H-indol-2-yl]-3-methyl-6-(trifluoromethyl)-3H-imidazo[4,5-b]pyridine]	≥ 90%	≥ 50%	≥ 90%				≥ 90%		≥ 50%
	CCSc1c(-c2nc3cc(C(F)(F)F)cnc3n2C)sc2ccc(C(F)(F)F)cc12 [3-1-002b, 2-[3-(ethylthio)-5-(trifluoromethyl)benzo[b]thiophen-2-yl]-3-methyl-6-(trifluoromethyl)-3H-imidazo[4,5-b]pyridine]	≥ 90%			≥ 90%			≥ 90%	≥ 50%	≥ 50%
	CCSc1c(-c2nc3cc(C(F)(F)F)cnc3n2C)n(C)c2ccc(C(F)(F)F)cc12 [3-1-001b, 2-[3-(ethylthio)-1-methyl-5-(trifluoromethyl)-1H-indol-2-yl]-3-methyl-6-(trifluoromethyl)-3H-imidazo[4,5-b]pyridine]	≥ 90%	≥ 50%							≥ 50%
	CCS(=O)(=O)c1c(-c2nc3cc(C(F)(F)F)cnc3n2C)nc2cc(C(F)(F)F)ncn12 [1-1-055a, 2-[3-(ethylsulfonyl)-7-(trifluoromethyl)imidazo[1,2-c]pyrimidin-2-yl]-3-methyl-6-(trifluoromethyl)-3H-imidazo[4,5-b]pyridine]	≥ 90%							≥ 50%	≥ 50%
	CCSc1c(-c2nc3cc(C(F)(F)F)cnc3n2C)nc2cc(C(F)(F)F)ncn12 [1-1-055b, 2-[3-(ethylthio)-7-(trifluoromethyl)imidazo[1,2-c]pyrimidin-2-yl]-3-methyl-6-(trifluoromethyl)-3H-imidazo[4,5-b]pyridine]		≥ 50%							
	CCSc1c(-c2nc3cc(C(F)(F)F)cnc3n2C)nc2cc(C(F)(F)F)ccn12 [1-1-002b, 2-[3-(ethylthio)-7-(trifluoromethyl)imidazo[1,2-a]pyridin-2-yl]-3-methyl-6-(trifluoromethyl)-3H-imidazo[4,5-b]pyridine]	≥ 90%	≥ 50%	≥ 90%				≥ 90%		≥ 50%
	CCSc1c(-c2nc3cc(C(F)(F)F)cnc3n2C)nc2ncc(C(F)(F)F)cn12 [1-1-054b, 2-[3-(ethylthio)-6-(trifluoromethyl)imidazo[1,2-a]pyrimidin-2-yl]-3-methyl-6-(trifluoromethyl)-3H-imidazo[4,5-b]pyridine]		≥ 50%							≥ 50%
	CCSc1c(-c2nc3cc(C(F)(F)F)ncc3n2C)nc2cc(Cl)ccn12 [1-8-006b, 2-[7-chloro-3-(ethylthio)imidazo[1,2-a]pyridin-2-yl]-3-methyl-6-(trifluoromethyl)-3H-imidazo[4,5-c]pyridine]	≥ 90%						≥ 90%	≥ 50%	≥ 50%
	CCS(=O)(=O)c1c(-c2nc3cc(C(F)(F)F)cnc3n2C)nc2cc(C(F)(F)F)cnn12 [1-1-057a, 2-[3-(ethylsulfonyl)-7-(trifluoromethyl)imidazo[1,2-b]pyridazin-2-yl]-3-methyl-6-(trifluoromethyl)-3H-imidazo[4,5-b]pyridine]	≥ 90%	≥ 50%	≥ 90%	≥ 90%	≥ 90%	≥ 90%	≥ 90%	≥ 50%	≥ 50%
